Assays:
[1] = molar heat capacity at constant pressure; conditions: 101.33 kPa, DSC
[2] = Molar enthalpy of transition or fusion; conditions: Crystal; DSC
[3] = for Glass transition temperature: DSC

c1ccc(-c2cccc(-c3ccccc3)c2)cc1 [m-terphenyl]
Conditions | Normal melting temperature [°C] | molar heat capacity at constant pressure [J/K/mol]
[1], 212 K, Crystal | – | 190.6
[1], 212 K, Glass | – | 193.8
[1], 217 K, Glass | – | 200
[1], 222 K, Crystal | – | 200.7
[1], 222 K, Glass | – | 206.2
[1], 227 K, Glass | – | 212.4
[1], 232 K, Crystal | – | 210.8
[1], 232 K, Glass | – | 218.6
[1], 237 K, Glass | – | 224.8
[1], 242 K, Crystal | – | 220.8
[1], 252 K, Crystal | – | 230.9
[1], 262 K, Crystal | – | 241
[1], 272 K, Crystal | – | 251.1
[1], 280 K, Liquid | – | 364.8
[1], 282 K, Crystal | – | 261.2
[1], 290 K, Liquid | – | 370.5
[1], 292 K, Crystal | – | 271.2
[1], 300 K, Liquid | – | 376.3
[1], 302 K, Crystal | – | 281.3
[1], 310 K, Liquid | – | 382.1
[1], 312 K, Crystal | – | 291.4
[1], 318 K, Crystal | – | 299.5
[1], 320 K, Liquid | – | 387.8
[1], 322 K, Crystal | – | 301.5
[1], 323 K, Crystal | – | 304.2
[1], 328 K, Crystal | – | 308.9
[1], 330 K, Crystal | – | 309.5
[1], 330 K, Liquid | – | 393.6
[1], 333 K, Crystal | – | 313.5
[1], 338 K, Crystal | – | 318.2
[1], 340 K, Liquid | – | 399.3
[1], 343 K, Crystal | – | 322.9
[1], 348 K, Crystal | – | 327.5
[1], 350 K, Liquid | – | 405.1
[1], 360 K, Liquid | – | 410.9
[1], 370 K, Liquid | – | 416.6
[1], 378 K, Liquid | – | 421.2
[3], Crystal, DTA | 88 | –

Conditions | Glass transition temperature [°C] | Molar enthalpy of transition or fusion [kcal/mol]
[2] | – | 5.69
[3] | -17 | –

c1ccc(-c2ccccc2-c2ccccc2)cc1 [o-terphenyl]
[1]
Conditions | molar heat capacity at constant pressure [J/K/mol]
212 K, Glass | 181.5
217 K, Glass | 187.8
222 K, Glass | 194
227 K, Glass | 200.3
232 K, Glass | 206.5
237 K, Glass | 212.8
242 K, Glass | 219
280 K, Liquid | 356.2
290 K, Liquid | 363.1
300 K, Liquid | 370
310 K, Liquid | 376.9
320 K, Liquid | 383.8
330 K, Liquid | 390.7
340 K, Liquid | 397.6
350 K, Liquid | 404.4

Conditions | Glass transition temperature [°C]
[3] | -3

Source: the NIST ThermoML archive (doi:10.1016/j.tca.2018.08.015)
